# Laboratory results reported in patent publication US4910193A, “Treatment of gastrointestinal disorders” (Sandoz Ltd., priority 1987, dated 1990).
# Counter-ions that a name gives are not always drawn. Like-named read-outs stand apart in the source and are kept apart here.
# Experiments:
# [1] = Properties of salt forms (solubility, stability); format: physicochemical; conditions: in words
# 5-HT reflex = conditions: in words; comparison drug; cited from earlier work
# [2] = test system: chloera toxin-induced secretory diarrhea; design: species or system mouse (male NMRI); conditions: mouse, in vivo
# [3] = biological target: T1, low affinity 5-HT receptor (Cavia porcellus, UniProt O70212); assay: Isolated longitudinal muscle of guinea pig ileum, 5-HT contraction, low affinity receptor; conditions: read-out: pA2 (converted)
# T1 construct: The isolated longitudinal muscle of the guinea pig ileum with its adhering myenteric plexus; from tissue; host or cells: longitudinal muscle strips of ileum with myenteric plexus, male guinea pigs
# T1 sequence (O70212 20-490): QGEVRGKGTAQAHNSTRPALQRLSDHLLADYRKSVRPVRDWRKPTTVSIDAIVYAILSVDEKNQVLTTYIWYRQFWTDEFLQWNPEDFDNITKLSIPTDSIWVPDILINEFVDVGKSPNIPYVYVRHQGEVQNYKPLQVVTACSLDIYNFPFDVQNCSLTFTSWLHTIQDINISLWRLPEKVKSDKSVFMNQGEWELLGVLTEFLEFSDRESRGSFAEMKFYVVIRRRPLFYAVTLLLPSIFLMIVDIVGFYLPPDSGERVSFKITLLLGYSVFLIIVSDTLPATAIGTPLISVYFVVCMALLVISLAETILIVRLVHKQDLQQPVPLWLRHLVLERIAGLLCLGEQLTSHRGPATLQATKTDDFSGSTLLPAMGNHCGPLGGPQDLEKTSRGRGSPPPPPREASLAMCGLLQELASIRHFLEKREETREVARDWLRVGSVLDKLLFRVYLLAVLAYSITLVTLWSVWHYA
# Procedure: Male guinea pigs (200-400 g) were killed by a blow on the head and exsanguineated. A length of small intestine was removed about 2 cm from the ileo-caecal valve. The mesentery was carefully removed and the ileum was stretched over a glass rod. By stroking tangentially away from the mesenteric attachement with a wad of cotton wool, the longitudinal muscle layer was separated and stripped from the unterlying circular muscle. Longitudinal muscle strips, 3-4 cm length, were mounted in a 10 ml organ bath containing Tyrode solution at 37° C. and bubbled with 5% carbon dioxide in oxygen. […] The strips were placed under a resting tension of 500 mg. Contractions were recorded with an isotonic pendulum lever. After equilibration for 30 min a set concentration of carbachol was applied in 10 min intervals until a consistent reaction was achieved.
# Production of the concentration/reaction curve
# Non-cumulative concentration-response curves for 5-HT were established by adding increasing concentrations of the agonist to the organ bath at intervals of at least 15 min. […] Each concentration was left in contact with the tissue for 1 min. […] The contractions expressed as percentage of the maximal response to 5-HT obtained from several preparations were plotted as mean values in order to obtain log-concentration-response curves.
# rabbit vagus = conditions: in words; cited from earlier work
# [4] = test system: 5-HT3 receptors in the guinea pig ileum; conditions: counteracting 5-HT induced spasms; cited from earlier work
# [5] = test system: muscle strips from different parts of the guinea pig stomach; assay: Test A: field stimulation-induced contractions in guinea pig stomach muscle strips; design: species or system guinea pig (male Dunkin-Hartley)
# Source text: The compounds of the invention facilitate field stimulation-induced contractions in muscle strips from different parts of the guinea pig stomach and are therefore indicated to increase decreased peristalic movements in the stomach and to enhance gastric emptying in vivo. The test is effected as follows:
# Male Dunkin-Hartley guinea pigs, 340-450 g, which had been starved overnight, were killed by cervical transsection and the stomach removed and placed in Krebs-Henseleit solution (NaCl 118.0, KCl 4.75, KH2 PO4 1.2, MgSO4 1.2, CaCl2 2.5, glucose 10 mM). Segments were taken from the body (approximately 20 mm long, 3-4 mm wide) with dissection in a plane suitable to investigate tension changes in the circular muscle layer. Tissues were placed in 30 ml organ baths containing oxygenated (95% O2, 5% CO2) Krebs-Henseleit solution at 37° C. One gram tension was applied to the tissues which were allowed to equilibrate for 45-60 min. before electrical stimulation. […] Responses were measured as changes in gram tension, but to allow easier comparison between treatments, data was converted to show changes as percentage values. The significance of differences between control responses and those obtained in the presence of interacting drugs was assessed using the Mann-Whitney U test.
# rabbit heart = conditions: in words; cited from earlier work
# [6] = test system: conscious guinea pigs having stomachs made atonic; assay: Test B: gastric emptying in conscious guinea pigs (X-ray of spheroids); format: in vivo, guinea pig; conditions: versus metoclopramide
# Procedure: The compounds of the invention also induce gastric emptying as indicated in standard in vivo tests, e.g. in conscious guinea pigs having stomachs made atonic (i.e. having decreased peristaltic movements) by fasting and wherein the passage of glass spheroids was observed by X-ray techniques. The experiments is effected as follows:
# Food was withdrawn for 14 hours before the measurement of gastric emptying. The experiment was conducted under low illumination with minimal noise and disturbance, and was carried out only by those experimentors who had daily contact with the guinea pigs and who carried out the initial training to accustom the guinea pigs to handling. Therefore, animals were subject to minimal stress. […] Gastric emptying was measured as the number of spheroids leaving the stomach.
# Six guinea pigs were used at each dose level of drug and responses compared to those of guinea pigs receiving the appropriate vehicle. The significance of differences between drug and control responses was assessed using the Mann Whitney U test.
# [7] = test system: gastrointestinal motility induced by 5-hydroxytryptophan (5-HTP); assay: Test C: inhibition of increase in gastrointestinal motility induced by 5-HTP; format: in vivo, mouse (male NMRI); conditions: Mus musculus, ip; inhibition of 5-HTP induced motility
# Procedure: In a further test the inhibition of the compounds of the invention in inhibiting the increase in gastrointestinal motility induced by 5-hydroxytryptophan (5-HTP) was observed.
# Male NMRI mice (18-32 g in weight) are deprived of food 20 hours before the test. Water is not limited. The animals are separated by a barrier from their straw and access to feces. At the beginning of the test the animals are separated in individual single cages and water is removed.
# All animals were treated with the test compound or saline. I.p. administration was used. Injection volume was 0.1 ml/10 g. 30 minutes after pre-treatment 5-HTP or saline was administered. Injection volume 0.1 ml/10 g. Dose 3 mg/kg. At the same time charcoal was administered perorally (10% suspension in water; 0.1 ml/10 g). 45 minutes after the start of the experiment the animals were killed. The intestines from the stomach to the rectum were examined. For each animal the transit distance of the front of the charcoal mean along the intestine was measured. The distance was ascertained as a percentage of the whole intestinal length. Groups of at least 3 animals were used.
# [8] = test system: high affinity 5-HT receptor; assay: Isolated longitudinal muscle of guinea pig ileum, 5-HT contraction, high affinity receptor
# Source text: The isolated longitudinal muscle of the guinea pig ileum with its adhering myenteric plexus is a well established model which permits investigation of the mechanism of action of various neurotransmitters.
# Male guinea pigs (200-400 g) were killed by a blow on the head and exsanguineated. A length of small intestine was removed about 2 cm from the ileo-caecal valve. The mesentery was carefully removed and the ileum was stretched over a glass rod. By stroking tangentially away from the mesenteric attachement with a wad of cotton wool, the longitudinal muscle layer was separated and stripped from the unterlying circular muscle. Longitudinal muscle strips, 3-4 cm length, were mounted in a 10 ml organ bath containing Tyrode solution at 37° C. and bubbled with 5% carbon dioxide in oxygen. The Tyrode solution was of the following composition (mmol/l): NaCl, 137.0; CaCl2, 1.8; KCl, 2.7; MgCl2, 1.05; NaHCO3, 11.9; NaH2 PO4, 0.4; glucose, 5.6. The strips were placed under a resting tension of 500 mg. Contractions were recorded with an isotonic pendulum lever. […]
# Each concentration was left in contact with the tissue for 1 min. […] Inhibition constants were expressed in the form of pA2 values which were graphically determined according to conventional methods (Arunlakshana and Schild, 1959. McKay 1978). […]
# dopamine binding sites [9] = conditions: tritiated haloperidol; read-out: IC50 dopamine sites (literature); cited from earlier work
# dopamine = conditions: in words; comparison drug; cited from earlier work
# dopamine binding sites [10] = assay: Binding to dopamine sites with tritiated haloperidol
# Procedure: Several drugs e.g. metoclopramide are known for the treatment of gastrointestinal disorders (gut motility disorders). Action has been ascribed to opiates (e.g. loperamide), dopaminergic compounds (e.g. metoclopramide) although for most drugs the mode of the action is not well understood (see J. R. Malegeleda Scand. J. Gastroenterology, 19, Suppl. 96, 1984, pp. 115-121).
# The compounds of the invention have insignificant action on dopamine binding sites, e.g. having an IC50 of […] or more using tritriated haloperidol.
structure (smiles),measurement,setting,value
CN1[C@@H]2CCC[C@H]1C[C@@H](OC(=O)c1csc3ccccc13)C2 [hydrochloride of compound F],solubility and stability properties of salt form,[1],"especially advantageous properties, e.g. from the solubility and stability point of view"
CN1[C@@H]2CC[C@H]1C[C@@H](OC(=O)C(CO)c1ccccc1)C2 (some centres unmarked) [atropine],effect on the whole reflex,5-HT reflex,paralyse the whole reflex
"CN1[C@@H]2CC[C@H]1C[C@@H](OC(=O)c1c[nH]c3ccccc13)C2 [Compound E, Indol-3-yl carboxylic acid endo-8-methyl-8-aza-bicyclo-[3,2,1]oct-3-yl ester]",effect of increased dose on stomach contents,[2],did not lead to a reduction in the stomach contents
same,Kb,[3],12.6 nM
same,action against 5-HT on rabbit vagus,rabbit vagus,antagonistic action against 5-HT
same,action at 5-HT3 receptors in guinea pig ileum,[4],competitive antagonist of the 5-HT3 receptors in the guinea pig ileum
same,EC (maximal response),"[5]; Cavia porcellus, field stimulation of stomach strips, read-out: concentration producing maximal response",0.01 µM
same,times more active than metoclopramide (contraction),[5]; versus metoclopramide,100 times
same,action against 5-HT on rabbit heart,rabbit heart,antagonistic action against 5-HT
same,times more active than metoclopramide (gastric emptying),[6],about 50 times
same,ED50,[7],0.07 mg/kg
same,pD'2,[8],5.7
CCN(CC)CCNC(=O)c1cc(Cl)c(N)cc1OC [metoclopramide],IC50,dopamine binding sites [9],~170 nM
same,dopamine action,dopamine,dopamine agonist action
CNc1cc(OC)c(C(=O)NC2CN3CCC2CC3)cc1Cl (centres unmarked) [Example 71],IC50,dopamine binding sites [10],> 10 µM
CN1[C@@H]2CCC[C@H]1C[C@@H](OC(=O)c1cn(C)c3ccc(F)cc13)C2 [hydrogen maleate of compound G],solubility and stability properties of salt form,[1],"especially advantageous properties, e.g. from the solubility and stability point of view"
"CN1[C@@H]2CCC[C@H]1C[C@@H](OC(=O)c1cn(C)c3ccc(F)cc13)C2 [Compound G, 5-fluoro-1-methyl-indol-3-yl carboxylic acid endo-9-methyl-9-aza-bicyclo[3,3,1]non-3-yl ester]",ED50,[7],0.002 mg/kg
"CN1[C@@H]2CCC[C@H]1C[C@@H](OC(=O)c1csc3ccccc13)C2 [Compound F, Benzo[b]thiophen-3-yl carboxylic acid endo-9-methyl-aza-bicyclo[3,3,1]non-3-yl ester]",Kb,[3],0.398 nM
same,ED50,[7],0.025 mg/kg
same,pD'2,[8],5.9
